# Patent US20100048555A1, “IMIDAZOTHIAZOLE DERIVATIVES AS MARK INHIBITORS” (priority 2006, published 2010)
# Biological target: T1, MARK3 (Homo sapiens, UniProt P27448)
# T1 construct: purchased University of Dundee
# Test: MARK 3 Assay (HTRF, Cdc25C biotinylated peptide substrate)
# Assay type: biochemical
# Conditions: recombinant MARK3 enzyme, 10 μM ATP, 1 μM peptide substrate
# Description: MARK3 activity was assayed in vitro using a Cdc25C biotinylated peptide substrate (Cell Signalling Technologies). The phosphopeptide product was quantitated using a Homogenous Time-Resolved Fluorescence (HTRF) assay system (Park et al., 1999, Anal. Biochem. 269:94-104). The reaction mixture contained 50 mM HEPES/Tris-HCl, pH 7.4; 10 mM NaCl, 5 mM MgCl2, 0.2 mM NaVO4, 5 mM β-glycerol phosphate, 0.1% Tween-20, 2 mM dithiothreitol, 0.1% BSA, 10 μM ATP, 1 μM peptide substrate, and 10 nM recombinant MARK3 enzyme (University of Dundee) in a final volume of 12 μl. The buffer additionally contained protease inhibitor cocktail (Roche EDTA-free, 1 tab per 50 ml). The kinase reaction was incubated for 2 hours at 25° C., and then terminated with 3 μl Stop/Detection Buffer (50 mM HEPES, pH 7.0, 16.6 mM EDTA, 0.5M KF, 0.1% Tween-20, 0.1% BSA, 2 μg/ml SLX^ent 665 (CISBIO), and 2 μg/ml Eu^3+ cryptate label antibody (CISBIO)). The reaction was allowed to equilibrate overnight at 0° C., and relative fluorescent units were read on an HTRF enabled plate reader (e.g. TECAN GENios Pro). Inhibitor compounds were assayed in the reaction described above to determine compound IC50s. Aliquots of compound dissolved in DMSO were added to the reaction wells in a third-log dilution series covering a range of 1 nM to 10 μM. Relative phospho substrate formation, read as HTRF fluorescence units, was measured over the range of compound concentrations and a titration curve generated.
# T1 sequence (P27448 whole entry, species assumed): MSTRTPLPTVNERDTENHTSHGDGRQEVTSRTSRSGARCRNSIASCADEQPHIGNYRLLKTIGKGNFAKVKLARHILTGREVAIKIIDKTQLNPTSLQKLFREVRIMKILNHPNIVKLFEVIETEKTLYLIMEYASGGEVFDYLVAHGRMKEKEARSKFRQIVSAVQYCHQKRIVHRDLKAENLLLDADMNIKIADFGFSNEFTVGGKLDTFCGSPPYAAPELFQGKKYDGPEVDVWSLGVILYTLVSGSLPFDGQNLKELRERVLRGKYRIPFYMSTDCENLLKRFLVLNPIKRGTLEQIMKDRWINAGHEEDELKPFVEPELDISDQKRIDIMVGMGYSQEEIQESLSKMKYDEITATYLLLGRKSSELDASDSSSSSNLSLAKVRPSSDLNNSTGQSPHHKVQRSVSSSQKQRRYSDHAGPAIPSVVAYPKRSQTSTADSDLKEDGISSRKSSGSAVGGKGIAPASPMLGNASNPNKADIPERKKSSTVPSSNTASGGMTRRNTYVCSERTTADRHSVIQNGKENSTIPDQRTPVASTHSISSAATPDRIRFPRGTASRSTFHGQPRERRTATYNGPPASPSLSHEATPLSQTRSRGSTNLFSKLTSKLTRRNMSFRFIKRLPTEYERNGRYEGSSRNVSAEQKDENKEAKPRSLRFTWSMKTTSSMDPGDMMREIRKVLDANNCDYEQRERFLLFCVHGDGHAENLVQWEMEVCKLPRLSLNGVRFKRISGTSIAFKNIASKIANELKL
row,IC50,SMILES
1,100 to 500 nM,"O=C(Nc1ncn2c(C(F)(F)F)csc12)c1ccc(F)cc1 [Example 1, 4-Fluoro-N-[3-(trifluoromethyl)imidazo[5,1-b][1,3]thiazol-7-yl]benzamide]"
2,100 to 500 nM,"O=C(Nc1ncn2c(C(F)(F)F)csc12)c1ccc(Cl)cc1 [Example 7, 4-Chloro-N-[3-(trifluoromethyl)imidazo[5,1-b][1,3]thiazol-7-yl]benzamide]"
3,< 100 nM,"CN1CCN(c2ccc(C(=O)Nc3ncn4c(C(F)(F)F)csc34)cc2)CC1 [Example 8, 4-(4-Methylpiperazin-1-yl)-N-[3-(trifluoromethyl)imidazo[5,1-b][1,3]thiazol-7-yl]benzamide]"
4,100 to 500 nM,O=C(Nc1ncn2c(C(F)(F)F)csc12)c1ccc(N2CCOCC2)cc1 [Example 9]
5,< 100 nM,"O=C(Nc1ncn2c(C(F)(F)F)csc12)c1ccc(OCCN2CCCCC2)cc1 [Example 12, 4-(2-Piperidin-1-ylethoxy)-N-[3-(trifluoromethyl)imidazo[5,1-b][1,3]thiazol-7-yl]benzamide]"
6,100 to 500 nM,"O=C(Nc1ncn2c(C(F)(F)F)csc12)c1ccc(CO)cc1 [Example 14, 4-(Hydroxymethyl)-N-[3-(trifluoromethyl)imidazo[5,1-b][1,3]thiazol-7-yl]benzamide]"
7,100 to 500 nM,"O=C(Nc1ncn2c(C(F)(F)F)csc12)c1ccc(CN2CCOCC2)cc1 [Example 16, 4-(Morpholin-4-ylmethyl)-N-[3-(trifluoromethyl)imidazo[5,1-b][1,3]thiazol-7-yl]benzamide]"
8,100 to 500 nM,"O=C(Nc1ncn2c(C(F)(F)F)csc12)c1ccc(CN2CCCCC2)cc1 [Example 17, 4-(Piperidin-1-ylmethyl)-N-[3-(trifluoromethyl)imidazo[5,1-b][1,3]thiazol-7-yl]benzamide]"
9,100 to 500 nM,"CN1CCN(Cc2ccc(C(=O)Nc3ncn4c(C(F)(F)F)csc34)cc2)CC1 [Example 18, 4-[(4-methylpiperazin-1-yl)methyl]-N-[3-(trifluoromethyl)imidazo[5,1-b][1,3]thiazol-7-yl]benzamide]"

# Same assay, conditions: recombinant MARK3 enzyme, 10 μM ATP, range given with mixed units (500 nM to 1 μM), units kept in the value
row,IC50,SMILES
1,500 to 1000 nM,"O=C(Nc1ncn2c(C(F)(F)F)csc12)c1ccc(O)cc1 [Example 2, 4-Hydroxy-N-[3-(trifluoromethyl)imidazo[5,1-b][1,3]thiazol-7-yl]benzamide]"
2,500 to 1000 nM,"O=C(Nc1ncn2c(C(F)(F)F)csc12)c1cccc(OCCN2CCCCC2)c1 [Example 13, 3-(2-Piperidin-1-ylethoxy)-N-[3-(trifluoromethyl)imidazo[5,1-b][1,3]thiazol-7-yl]benzamide]"
3,500 to 1000 nM,"O=C(Nc1ncn2c(C(F)(F)F)csc12)c1ccc(CO)cc1 [Example 14, 4-(Hydroxymethyl)-N-[3-(trifluoromethyl)imidazo[5,1-b][1,3]thiazol-7-yl]benzamide]"
4,500 to 1000 nM,"CN1CCN(c2ccc(C(=O)Nc3ncn4c(C(F)(F)F)csc34)cn2)CC1 [Example 19, 6-(4-methylpiperazin-1-yl)-N-[3-(trifluoromethyl)imidazo[5,1-b][1,3]thiazol-7-yl]nicotinamide]"
